pEC50: −log10 of the molar value. Read-outs that look alike come from different tables or passages of the source.
Legend:
Type in all cases: cell-based
ΔF508-CFTR [1] = molecular target: T1, ΔF508-CFTR (Homo sapiens, UniProt P13569, DEL508-508); assay: CFTR cell surface levels using HRP-tagged ΔF508-CFTR expressing CFBE cells, in the presence of a co-corrector; conditions: HRP-tagged ΔF508-CFTR CFBE cells, in the presence of 3 μM co-corrector; for pEC50: read-out: EC50
T1 construct: host or cells: CFBE41o-, doxycycline-inducible
Summary of the method: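 Chemiluminescent read-out of surface HRP (15 min, dark) after PBS washes. Activity is normalized as 100×(sample−DMSO)/(3 μM co-corrector alone−DMSO).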

ΔF508-CFTR [2] = molecular target: T1, ΔF508-CFTR; assay: CFTR cell surface levels using HRP-tagged ΔF508-CFTR expressing CFBE cells, intrinsic corrector capacity; parameters: % Activation: concentration or dose not given beside the values; conditions: HRP-tagged ΔF508-CFTR expressing CFBE41o- cells, compound alone (intrinsic corrector capacity), 20 hours at 33° C.; for pEC50: read-out: EC50
Summary of the method: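 Surface ΔF508-CFTR was measured as HRP chemiluminescence from an extracellular-loop-4 tag, expressed as percent activity between DMSO and a […] corrector control.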

CFTR ΔF508 = molecular target: T2, CFTR ΔF508 (Homo sapiens, UniProt P13569, DEL508-508); assay: Chronic TECC assay, primary bronchial epithelial cells of CF patients homozygous for CFTR ΔF508 (corrector, co-corrector and potentiator); conditions: chronic TECC; for % Activity at 1 μM (AUC**) / % Activity at 1 μM (Ieq*): test compound at 1 μM; for % Activity at 3 μM (AUC**): test compound at 3 μM
T2 construct: bronchial epithelial cells isolated from CF patients homozygous for the CFTR ΔF508 mutation; McGill University; Asterand; University of North Carolina hAEC-CF; host or cells: primary human bronchial epithelial cells from CF patients homozygous for ΔF508, differentiated at air-liquid interface
Summary of the method: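 Primary bronchial epithelial cells from ΔF508-homozygous CF patients on collagen IV-coated Transwells were chronically treated with test compound plus corrector and potentiator, which were re-added before recording. Ieq was derived from PD and Rt in NaCl-Ringer, pH 7.4, at 37° C, with apical amiloride and bilateral forskolin, recorded every 2 min over 20 min. Ieq increase was normalized to controls, and EC50 was taken from per-well concentrations.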

[3] = AUC = full area under the curve upon forskolin stimulation, read-out: EC50 (nM) (AUC**)
[4] = AUC = full area under the curve upon forskolin stimulation
[5] = Ieq = calculations based on the maximum current, read-out: EC50 (nM) (Ieq*)
[6] = Ieq = calculations based on the maximum current

T1 sequence (P13569 with tags, fused parts or gaps DEL508-508): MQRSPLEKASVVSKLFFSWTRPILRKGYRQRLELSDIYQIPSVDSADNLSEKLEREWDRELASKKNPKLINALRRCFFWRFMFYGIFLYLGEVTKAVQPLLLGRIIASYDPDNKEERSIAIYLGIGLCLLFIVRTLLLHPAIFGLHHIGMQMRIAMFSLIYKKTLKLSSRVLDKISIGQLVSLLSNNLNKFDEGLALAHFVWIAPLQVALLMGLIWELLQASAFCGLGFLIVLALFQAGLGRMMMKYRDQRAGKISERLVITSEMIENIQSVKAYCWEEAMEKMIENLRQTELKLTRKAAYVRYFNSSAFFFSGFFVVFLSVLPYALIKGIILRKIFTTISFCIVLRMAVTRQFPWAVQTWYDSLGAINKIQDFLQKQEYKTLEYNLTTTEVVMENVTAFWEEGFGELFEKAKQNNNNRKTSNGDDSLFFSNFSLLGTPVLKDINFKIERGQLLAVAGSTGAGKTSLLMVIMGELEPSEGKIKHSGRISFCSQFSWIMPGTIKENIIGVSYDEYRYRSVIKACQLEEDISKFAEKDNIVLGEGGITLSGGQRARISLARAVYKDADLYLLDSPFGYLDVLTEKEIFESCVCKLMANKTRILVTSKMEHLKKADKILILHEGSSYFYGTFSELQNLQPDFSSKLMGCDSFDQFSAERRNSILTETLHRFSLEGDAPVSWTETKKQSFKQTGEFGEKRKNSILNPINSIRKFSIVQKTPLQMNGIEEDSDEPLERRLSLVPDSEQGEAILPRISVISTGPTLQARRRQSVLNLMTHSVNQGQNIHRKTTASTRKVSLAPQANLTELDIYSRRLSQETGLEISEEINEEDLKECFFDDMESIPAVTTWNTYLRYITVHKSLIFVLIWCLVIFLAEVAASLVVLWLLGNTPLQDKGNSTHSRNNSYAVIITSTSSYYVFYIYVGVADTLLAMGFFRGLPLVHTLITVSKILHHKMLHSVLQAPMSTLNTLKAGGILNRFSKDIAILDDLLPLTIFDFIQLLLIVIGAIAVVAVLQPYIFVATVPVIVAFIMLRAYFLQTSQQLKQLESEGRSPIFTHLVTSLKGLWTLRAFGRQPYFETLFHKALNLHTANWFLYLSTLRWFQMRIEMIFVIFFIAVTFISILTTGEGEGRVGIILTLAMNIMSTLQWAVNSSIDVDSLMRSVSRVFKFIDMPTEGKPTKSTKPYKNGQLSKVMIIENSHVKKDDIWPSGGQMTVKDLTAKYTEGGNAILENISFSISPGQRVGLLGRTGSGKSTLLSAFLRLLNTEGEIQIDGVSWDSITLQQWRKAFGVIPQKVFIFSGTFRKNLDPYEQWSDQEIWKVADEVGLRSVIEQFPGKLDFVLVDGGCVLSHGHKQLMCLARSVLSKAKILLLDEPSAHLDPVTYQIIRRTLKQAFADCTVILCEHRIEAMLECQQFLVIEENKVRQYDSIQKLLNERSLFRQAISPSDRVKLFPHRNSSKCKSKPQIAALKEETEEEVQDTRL
T2 sequence (P13569 with tags, fused parts or gaps DEL508-508): as above

SMILES | % Activation (ΔF508-CFTR [1]) [%] | pEC50 (ΔF508-CFTR [1]) | % Activation (ΔF508-CFTR [2]) [%] | pEC50 (ΔF508-CFTR [2]) | EC50 (CFTR ΔF508; [3]) [nM] | % Activity at 1 μM (AUC**) (CFTR ΔF508; [4]) [%] | EC50 (CFTR ΔF508; [5]) [nM] | % Activity at 1 μM (Ieq*) (CFTR ΔF508; [6]) [%] | % Activity at 3 μM (AUC**) (CFTR ΔF508; [4]) [%]
CS(=O)(=O)NC(=O)c1cc(N2CCC(OC3CCCC3)CC2)c2c(C3CCC3)nn(-c3ccccc3)c2n1 [Compound 228, 3-cyclobutyl-4-[4-(cyclopentyloxy)piperidin-1-yl]-N-(methanesulfonyl)-1-phenyl-1H-pyrazolo[3,4-b]pyridine-6-carboxamide] | 395.1 | 6.48 | 217.9 | 6.31 | 32 | 240 | – | – | –
CC(C)c1nn(-c2cccc(N3CCOCC3)n2)c2nc(C(=O)NS(C)(=O)=O)cc(-c3ccc(N4CCOCC4)cc3)c12 [Compound 128, N-(methanesulfonyl)-4-[4-(morpholin-4-yl)phenyl]-1-[6-(morpholin-4-yl)pyridin-2-yl]-3-(propan-2-yl)-1H-pyrazolo[3,4-b]pyridine-6-carboxamide] | 529.57 | 6.60 | 357.47 | 6.29 | – | – | < 30 | 235 | –
CN(C)S(=O)(=O)NC(=O)c1cc(N2CCC3(CC2)CCN(C2COC2)CC3)c2c(C3CCC3)nn(-c3ccc(F)cc3)c2n1 [Compound 614, 3-cyclobutyl-N-(dimethylsulfamoyl)-1-(4-fluorophenyl)-4-[9-(oxetan-3-yl)-3,9-diazaspiro[5.5]undecan-3-yl]-1H-pyrazolo[3,4-b]pyridine-6-carboxamide] | 381.35 | 6.77 | 172 | 6.68 | – | – | – | – | 407.7118
COC1CCN(c2cc(C(=O)NS(C)(=O)=O)nc3c2c(C(C)C)nn3C2CCCCC2)CC1 [Compound 150, 1-cyclohexyl-N-(methanesulfonyl)-4-(4-methoxypiperidin-1-yl)-3-(propan-2-yl)-1H-pyrazolo[3,4-b]pyridine-6-carboxamide] | 380.65 | 6.50 | 220.98 | 6.24 | – | – | 100 | – | –
CC(C)Oc1nn(C2CCCCC2)c2nc(C(=O)NS(=O)(=O)N(C)C)cc(-c3ccc(C(=O)N4CCN(C)CC4)cc3)c12 [Compound 423, 1-cyclohexyl-N-(dimethylsulfamoyl)-4-[4-(4-methylpiperazine-1-carbonyl)phenyl]-3-[(propan-2-yl)oxy]-1H-pyrazolo[3,4-b]pyridine-6-carboxamide] | 376.85 | 6.96 | 175.55 | 6.85 | 39.8 | 365 | – | – | –
COCC1CCN(c2cc(C(=O)NS(C)(=O)=O)nc3c2c(C(C)C)nn3-c2cccc(N(C)C)c2)CC1 [Compound 144, 1-[3-(dimethylamino)phenyl]-N-(methanesulfonyl)-4-[4-(methoxymethyl)piperidin-1-yl]-3-(propan-2-yl)-1H-pyrazolo[3,4-b]pyridine-6-carboxamide] | 674.7 | 6.61 | 531.6 | 6.38 | – | – | 12 | 350 | –
CC(C)Oc1cc(-n2nc(C3CCC3)c3c(N4CCC(N5CCOCC5)CC4)cc(C(=O)NS(C)(=O)=O)nc32)ccn1 [Compound 530, 3-cyclobutyl-N-(methanesulfonyl)-4-[4-(morpholin-4-yl)piperidin-1-yl]-1-{2-[(propan-2-yl)oxy]pyridin-4-yl}-1H-pyrazolo[3,4-b]pyridine-6-carboxamide] | 464.6 | 7.64 | 323.1 | 7.26 | – | 326.6667 | – | – | –
COC1CCN(c2cc(C(=O)NS(C)(=O)=O)nc3c2c(C(C)C)nn3-c2cccc(N(C)C)c2)CC1 [Compound 155, 1-[3-(dimethylamino)phenyl]-N-(methanesulfonyl)-4-(4-methoxypiperidin-1-yl)-3-(propan-2-yl)-1H-pyrazolo[3,4-b]pyridine-6-carboxamide] | 555.45 | 6.64 | 439.5 | 6.34 | 4 | 200 | – | – | –
COCC1CCN(c2cc(C(=O)NS(=O)(=O)N3CCN(C4CC4)CC3)nc3c2c(C2CCC2)nn3-c2ccc(F)cc2)CC1 [Compound 609, 3-cyclobutyl-N-(4-cyclopropylpiperazine-1-sulfonyl)-1-(4-fluorophenyl)-4-[4-(methoxymethyl)piperidin-1-yl]-1H-pyrazolo[3,4-b]pyridine-6-carboxamide] | 414.2 | 6.96 | 202.53 | 6.60 | – | – | – | – | 306.6667
COCC1CCN(c2cc(C(=O)NS(=O)(=O)CCN3CCOCC3)nc3c2c(C2CCC2)nn3-c2ccccc2)CC1 [Compound 267, 3-cyclobutyl-4-[4-(methoxymethyl)piperidin-1-yl]-N-[2-(morpholin-4-yl)ethanesulfonyl]-1-phenyl-1H-pyrazolo[3,4-b]pyridine-6-carboxamide] | 433 | 7.24 | 274.8 | 6.77 | 130 | – | – | – | –
CCOC(=O)N1CCN(c2cc(C(=O)NS(C)(=O)=O)nc3c2c(C(C)C)nn3-c2ccc(F)cc2)CC1 [Compound 337, ethyl 4-[1-(4-fluorophenyl)-6-[(methanesulfonyl)carbamoyl]-3-(propan-2-yl)-1H-pyrazolo[3,4-b]pyridin-4-yl]piperazine-1-carboxylate] | 532.3 | 7.51 | 404.9 | 6.87 | – | 299.50 | – | – | –
CC(C)N1CCC(c2cc(C(=O)NS(C)(=O)=O)nc3c2c(C2CCC2)nn3-c2ccc(F)cc2)CC1 [Compound 611, 3-cyclobutyl-1-(4-fluorophenyl)-N-(methanesulfonyl)-4-[1-(propan-2-yl)piperidin-4-yl]-1H-pyrazolo[3,4-b]pyridine-6-carboxamide] | 236.7 | 5.58 | 77.39 | 5.48 | – | – | – | – | 176.7495
CCCOC1CCN(c2cc(C(=O)NS(C)(=O)=O)nc3c2c(C2CCC2)nn3-c2ccccc2)CC1 [Compound 152, 3-cyclobutyl-N-(methanesulfonyl)-1-phenyl-4-(4-propoxypiperidin-1-yl)-1H-pyrazolo[3,4-b]pyridine-6-carboxamide] | 409.9 | 6.97 | 242.35 | 6.45 | 16 | 482.77 | – | – | –
COCCN(C)c1ccc(-c2cc(C(=O)NS(C)(=O)=O)nc3c2c(C(C)C)nn3-c2cccc(N3CCOCC3)c2)cn1 [Compound 86, N-(methanesulfonyl)-4-{6-[(2-methoxyethyl)(methyl)amino]pyridin-3-yl}-1-[3-(morpholin-4-yl)phenyl]-3-(propan-2-yl)-1H-pyrazolo[3,4-b]pyridine-6-carboxamide] | 489.56 | 6.59 | 329.92 | 6.20 | – | – | 30 | 210 | –
COc1cc(-n2nc(C3CCC3)c3c(N4CCC(N5CCOCC5)CC4)cc(C(=O)NS(C)(=O)=O)nc32)ccn1 [Compound 474, 3-cyclobutyl-N-(methanesulfonyl)-1-(2-methoxypyridin-4-yl)-4-[4-(morpholin-4-yl)piperidin-1-yl]-1H-pyrazolo[3,4-b]pyridine-6-carboxamide] | 390.2 | 6.28 | 194.5 | 6.24 | – | 226.6667 | – | – | –
CN(c1ccc(-c2cc(C(=O)NS(C)(=O)=O)nc3c2c(C2CCC2)nn3-c2ccccc2)cn1)C1CCOCC1 [Compound 74, 3-cyclobutyl-N-(methanesulfonyl)-4-{6-[methyl(oxan-4-yl)amino]pyridin-3-yl}-1-phenyl-1H-pyrazolo[3,4-b]pyridine-6-carboxamide] | 424.82 | 6.45 | 253.38 | 6.26 | – | – | < 30 | 240 | –
CC(C)c1nn(C2CCCCC2)c2nc(C(=O)NS(C)(=O)=O)cc(-c3ccc(N4CCC(C#N)CC4)cc3)c12 [Compound 80, 4-[4-(4-cyanopiperidin-1-yl)phenyl]-1-cyclohexyl-N-(methanesulfonyl)-3-(propan-2-yl)-1H-pyrazolo[3,4-b]pyridine-6-carboxamide] | 457.5 | 6.41 | 258.38 | 6.36 | – | – | 19.3 | 250 | –

Reference: US10259810B2, “N-sulfonylated pyrazolo[3,4-b]pyridin-6-carboxamides and method of use” (AbbVie S.à.r.l., priority 2015, dated 2019)
